# Patent US7138361B2, “Herbicidal heterocycles” (E. I. du Pont de Nemours and Company, priority 2000, dated 2006)
# Columns and labels:
# Format in all cases: in vivo
# [1] = tested on: corn (Zea mays); test: Test B preemergence; details: scale 0 to 100, 0 no effect, 100 complete control
# How it was run: (§1)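 Preemergence: seeds planted and treated with test chemicals in non-phytotoxic solvent with surfactant; postemergence on plants 2–18 cm (1- to 4-leaf stage). Kept in greenhouse 13–15 days, then visually rated against controls on a 0 (no effect) to 100 (complete control) scale.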
# [2] = tested on: Surinam grass (Brachiaria decumbens); test: Test B preemergence; details: scale 0 to 100, 0 no effect, 100 complete control
# How it was run: as §1
# [3] = tested on: morning glory (Ipomoea hederacea); test: Test B preemergence; details: Preemergence, Rate 500 g/ha; scale 0 to 100, 0 no effect, 100 complete control
# How it was run: as §1
# [4] = tested on: crabgrass (Digitaria sanguinalis); test: Test B preemergence; details: scale 0 to 100, 0 no effect, 100 complete control
# How it was run: as §1
# [5] = tested on: giant foxtail (Setaria faberii); test: Test B preemergence; details: scale 0 to 100, 0 no effect, 100 complete control
# How it was run: as §1
# [6] = tested on: barnyardgrass (Echinochloa crus-galli); test: Test B preemergence; details: scale 0 to 100, 0 no effect, 100 complete control
# How it was run: as §1
# [7] = tested on: lambsquarters (Chenopodium album); test: Test B preemergence; details: scale 0 to 100, 0 no effect, 100 complete control
# How it was run: as §1
# [8] = tested on: rice (Oryza saliva); test: Test B preemergence; details: Preemergence, Rate 500 g/ha; scale 0 to 100, 0 no effect, 100 complete control
# How it was run: as §1
# [9] = tested on: pigweed (Amaranthus retroflexus); test: Test B preemergence; details: Preemergence, Rate 500 g/ha; scale 0 to 100, 0 no effect, 100 complete control
# How it was run: as §1
# [10] = tested on: velvetleaf (Abutilon theophrasti); test: Test B preemergence; details: Preemergence, Rate 500 g/ha; scale 0 to 100, 0 no effect, 100 complete control
# How it was run: as §1
# [11] = tested on: cocklebur (Xanthium strumarium); test: Test B preemergence; details: scale 0 to 100, 0 no effect, 100 complete control
# How it was run: as §1
# [12] = tested on: corn (Zea mays); test: Test B postemergence; details: 13 to 15 days
# How it was run: as §1
# [13] = tested on: blackgrass (Alopecurus myosuroides); test: Test B postemergence; details: 13 to 15 days
# How it was run: as §1
# [14] = tested on: Surinam grass (Brachiaria decumbens); test: Test B postemergence; details: 13 to 15 days
# How it was run: as §1
# [15] = tested on: morning glory (Ipomoea hederacea); test: Test B postemergence; details: 13 to 15 days
# How it was run: as §1
# [16] = tested on: crabgrass (Digitaria sanguinalis); test: Test B postemergence; details: 13 to 15 days
# How it was run: as §1
# [17] = tested on: giant foxtail (Setaria faberii); test: Test B postemergence; details: 13 to 15 days
# How it was run: as §1
# [18] = tested on: barnyardgrass (Echinochloa crus-galli); test: Test B postemergence; details: 13 to 15 days
# How it was run: as §1
# [19] = tested on: lambsquarters (Chenopodium album); test: Test B postemergence; details: 13 to 15 days
# How it was run: as §1
# [20] = tested on: wheat (Triticum aestivum); test: Test B postemergence; details: 13 to 15 days
# How it was run: as §1
# [21] = tested on: pigweed (Amaranthus retroflexus); test: Test B postemergence; details: 13 to 15 days
# How it was run: as §1
# [22] = tested on: velvetleaf (Abutilon theophrasti); test: Test B postemergence; details: 13 to 15 days
# How it was run: as §1
# [23] = tested on: wild oat (Avena fatua); test: Test B postemergence; details: 13 to 15 days
# How it was run: as §1
# [24] = tested on: cocklebur (Xanthium strumarium); test: Test B postemergence; details: 13 to 15 days
# How it was run: as §1
# [25] = tested on: Sunflower; test: Test C preemergence; details: Rate 250 g/ha, visual evaluation after 12 to 14 days
# [26] = tested on: smallflower flatsedge (Cyperus difformis); test: Test C flooded paddy test; details: for Flatsedge plant response rating: Flooded Paddy, scale 0 to 100, 0 no effect, 100 complete control; for Plant response rating, Flatsedge: flooded paddy test, scale 0 to 100 (0 no effect, 100 complete control)
# How it was run: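 Greenhouse-maintained for 12 to 14 days after treatment, the paddy plants (2-leaf stage at application) were scored visually against controls. A score of 0 denotes no effect and a score of 100 denotes complete control.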
# [27] = tested on: Nightshade; test: Test C preemergence; details: Rate 250 g/ha, visual evaluation after 12 to 14 days
# [28] = Rate 125 g/ha, scale 0 (no effect) to 100 (complete control)
# [29] = Rate 500 g/ha, scale 0 to 100, 0 is no effect, 100 is complete control
smiles,measurement,setting,value
CC(C)(C)c1ccn(C2CCN(c3ccc(Cl)c(Cl)c3)C2=O)n1 (stereo not drawn) [Compound 34],"Plant response rating, Corn","[1]; Preemergence, Rate 500 g/ha",0
same,"Plant response rating, Corn","[1]; preemergence, Rate 125 g/ha",0
same,"Plant response rating, Surinam grass","[2]; Preemergence, Rate 500 g/ha",20
same,"Plant response rating, Surinam grass","[2]; preemergence, Rate 125 g/ha",0
same,"Plant response rating, Morningglory",[3],0
same,"Plant response rating, Crabgrass","[4]; preemergence, Rate 125 g/ha",100
same,"Plant response rating, Foxtail, Giant","[5]; Preemergence, Rate 500 g/ha",70
same,"Plant response rating, Foxtail, Giant","[5]; preemergence, Rate 125 g/ha",0
same,"Plant response rating, Barnyardgrass","[6]; Preemergence, Rate 500 g/ha",60
same,"Plant response rating, Barnyardgrass","[6]; preemergence, Rate 125 g/ha",0
same,"Plant response rating, Lambsquarters","[7]; Preemergence, Rate 500 g/ha",100
same,"Plant response rating, Lambsquarters","[7]; preemergence, Rate 125 g/ha",20
same,"Plant response rating, Rice",[8],0
same,"Plant response rating, Pigweed",[9],100
same,"Plant response rating, Velvetleaf",[10],100
same,"Plant response rating, Cocklebur","[11]; Preemergence, Rate 500 g/ha",0
same,"Plant response rating, Cocklebur","[11]; preemergence, Rate 125 g/ha",0
same,"Plant response rating, Corn",[12]; [28],0
same,"Plant response rating, Corn",[12]; [29],0
same,"Plant response rating, Blackgrass",[13]; [28],0
same,"Plant response rating, Blackgrass",[13]; [29],0
same,"Plant response rating, Surinam grass",[14]; [28],0
same,"Plant response rating, Surinam grass",[14]; [29],0
same,"Plant response rating, Morningglory",[15]; [28],0
same,"Plant response rating, Morningglory",[15]; [29],0
same,"Plant response rating, Crabgrass",[16]; [28],0
same,"Plant response rating, Crabgrass",[16]; [29],0
same,"Plant response rating, Foxtail, Giant",[17]; [28],0
same,"Plant response rating, Foxtail, Giant",[17]; [29],0
same,"Plant response rating, Barnyardgrass",[18]; [28],0
same,"Plant response rating, Barnyardgrass",[18]; [29],0
same,"Plant response rating, Lambsquarters",[19]; [28],90
same,"Plant response rating, Lambsquarters",[19]; [29],100
same,"Plant response rating, Wheat",[20]; [28],0
same,"Plant response rating, Wheat",[20]; [29],0
same,"Plant response rating, Pigweed",[21]; [28],90
same,"Plant response rating, Pigweed",[21]; [29],90
same,"Plant response rating, Velvetleaf",[22]; [28],0
same,"Plant response rating, Velvetleaf",[22]; [29],0
same,"Plant response rating, Wild Oat",[23]; [28],0
same,"Plant response rating, Wild Oat",[23]; [29],0
same,"Plant response rating, Cocklebur",[24]; [28],0
same,"Plant response rating, Cocklebur",[24]; [29],0
same,"Plant response rating (0 to 100), Sunflower",[25],0
same,Flatsedge plant response rating,[26]; Rate 250 g/ha,90
same,Flatsedge plant response rating,[26]; Rate 500 g/ha,100
same,"Plant response rating, Flatsedge",[26]; Rate 62 g/ha,70
same,"Plant response rating, Flatsedge",[26]; Rate 125 g/ha,90
same,"Plant response rating (0 to 100), Nightshade",[27],0
CC(C)(C)c1ccn(C2SCN(c3cccc(OC(F)F)c3)C2=O)n1 (stereo not drawn) [Compound 36],"Plant response rating, Corn","[1]; Preemergence, Rate 500 g/ha",0
same,"Plant response rating, Corn","[1]; preemergence, Rate 125 g/ha",0
same,"Plant response rating, Surinam grass","[2]; Preemergence, Rate 500 g/ha",100
same,"Plant response rating, Surinam grass","[2]; preemergence, Rate 125 g/ha",70
same,"Plant response rating, Morningglory",[3],0
same,"Plant response rating, Crabgrass","[4]; Preemergence, Rate 500 g/ha",100
same,"Plant response rating, Crabgrass","[4]; preemergence, Rate 125 g/ha",100
same,"Plant response rating, Foxtail, Giant","[5]; Preemergence, Rate 500 g/ha",100
same,"Plant response rating, Foxtail, Giant","[5]; preemergence, Rate 125 g/ha",100
same,"Plant response rating, Barnyardgrass","[6]; Preemergence, Rate 500 g/ha",100
same,"Plant response rating, Barnyardgrass","[6]; preemergence, Rate 125 g/ha",100
same,"Plant response rating, Lambsquarters","[7]; Preemergence, Rate 500 g/ha",100
same,"Plant response rating, Lambsquarters","[7]; preemergence, Rate 125 g/ha",100
same,"Plant response rating, Rice",[8],90
same,"Plant response rating, Pigweed",[9],100
same,"Plant response rating, Velvetleaf",[10],0
same,"Plant response rating, Cocklebur","[11]; Preemergence, Rate 500 g/ha",0
same,"Plant response rating, Cocklebur","[11]; preemergence, Rate 125 g/ha",0
same,"Plant response rating, Corn",[12]; [28],0
same,"Plant response rating, Corn",[12]; [29],70
same,"Plant response rating, Blackgrass",[13]; [28],0
same,"Plant response rating, Blackgrass",[13]; [29],0
same,"Plant response rating, Surinam grass",[14]; [28],0
same,"Plant response rating, Surinam grass",[14]; [29],50
same,"Plant response rating, Morningglory",[15]; [28],30
same,"Plant response rating, Morningglory",[15]; [29],40
same,"Plant response rating, Crabgrass",[16]; [28],80
same,"Plant response rating, Crabgrass",[16]; [29],100
same,"Plant response rating, Foxtail, Giant",[17]; [28],60
same,"Plant response rating, Foxtail, Giant",[17]; [29],90
same,"Plant response rating, Barnyardgrass",[18]; [28],90
same,"Plant response rating, Barnyardgrass",[18]; [29],100
same,"Plant response rating, Lambsquarters",[19]; [28],90
same,"Plant response rating, Lambsquarters",[19]; [29],100
same,"Plant response rating, Wheat",[20]; [28],0
same,"Plant response rating, Wheat",[20]; [29],0
same,"Plant response rating, Pigweed",[21]; [28],90
same,"Plant response rating, Pigweed",[21]; [29],100
same,"Plant response rating, Velvetleaf",[22]; [28],0
same,"Plant response rating, Velvetleaf",[22]; [29],60
same,"Plant response rating, Wild Oat",[23]; [28],0
same,"Plant response rating, Wild Oat",[23]; [29],20
same,"Plant response rating, Cocklebur",[24]; [28],20
same,"Plant response rating, Cocklebur",[24]; [29],60
same,"Plant response rating (0 to 100), Sunflower",[25],30
same,Flatsedge plant response rating,[26]; Rate 250 g/ha,100
same,Flatsedge plant response rating,[26]; Rate 500 g/ha,100
same,"Plant response rating, Flatsedge",[26]; Rate 62 g/ha,100
same,"Plant response rating, Flatsedge",[26]; Rate 125 g/ha,100
same,"Plant response rating (0 to 100), Nightshade",[27],90
